{"source": "patent US20100056948A1", "about": "“Stimulation of Satiety Hormone Release” (priority 2008, published 2010)", "key": {"[1]": {"system": "segments of duodenum, jejunum ileum, colon, esophagus, stomach", "assay": "GLP-1 release from segments of the entire GI tract incubated in linoleic acid", "assay_type": "cell-based, rat", "conditions": "LA 3 mg/mL, 45 minutes (FIG. 2)"}, "[2]": {"system": "rat distal ileum (L-cells)", "assay": "GLP-1 release from isolated rat distal ileum segments into the bathing medium (active GLP-1 ELISA), with or without electrical field stimulation", "assay_type": "cell-based", "conditions": "for GLP-1 release, LA alone (mean ± SEM): LA 3 mg/mL 45 min, no E-stim", "protocol": "(§1) Female Sprague-Dawley rats, 8-12 weeks weighing 250-300 g were euthanized by CO2 and at least 17 cm of distal ileum was immediately dissected starting at the ileocecal junction. Intraluminal contents were flushed with warm modified Krebs Ringers bicarbonate (KRB) buffer and intestines placed into 50 mL tubes containing oxygenated, cold KRB buffer. Intact segments (1.5 cm) of rat distal ileum were oriented longitudinally, with the oral end fixed in the organ chamber between bipolar stimulating electrodes and the aboral end attached to a solid-state force transducer and submerged in a 10 ml-chamber containing KRB at 37° C. and constantly aerated with 95% O2/5% CO2 (FIG. 1). […] The entire assembly was placed into 37° C. KRB buffer in jacketed 10 mL myobath chambers. The length of each segment was adjusted to an initial resting tension of 1 g and maintained at 37° C. in a KRB buffer or KRB containing linoleic acid (LA, 3 mg/mL) and a dipeptidyl peptidase-4 inhibitor (to prevent proteolysis of GLP-1). Contractile activity was digitized and data acquired for off line analysis using PowerLab hardware and Chart software (ADInstruments, Colorado Springs, Colo.). In separate experiments, segments were incubated in KRB or KRB+LA in the presence or absence of electrical field stimulation continuously for 45 min. Samples of the bathing solutions taken at 45 min and mucosal epithelial scrapings were stored frozen (minus 80° C.).\nActive GLP-1 concentration in thawed aliquots was measured by fluorescence on a plate reader using an ELISA (Linco Research, St. Charles, Mo.) with a detection range of 2-100 pM. This method measures both biologically active forms of GLP-1, that is GLP-1(7-36) and (GLP-1(7-36)) amide, that are currently known to be released by the intestinal mucosa. Measurements of GLP-1 were normalized to concentration in 10 mL volume and reported as pM. The mean and SEM GLP-1 release was calculated for each treatment. For each electrical stimulation condition (+/−LA) there were 2-6 rats with 2-4 segments of tissue per rat per condition.\nStatistical analysis was performed that included all conditions (with condition defined by the combination of frequency, voltage and duration of the electrical stimulation) and included a term for condition, treatment (LA alone or LA plus electrical stimulation) as a repeated factor, and the interaction between the two. Treatment is a within-subject effect, allowing each subject's LA alone response to serve as the control for that subject's response with electrical stimulation from the same study day. GLP-1 release was analyzed by repeated measures analyses of variance (ANOVA) on all eleven conditions with LA alone or LA plus electrical stimulation as a repeated factor. The mean and SEM reported in the tables below are based on 2-6 rats per condition with data from two replicates of each electrical stimulation condition averaged per rat. The P values are reported based on repeated measures analyses of variance (ANOVA) for each analysis and for the pairwise comparisons. The data were log-transformed prior to analyses to better satisfy the underlying statistical modeling assumptions of equal variability and sampling from populations with normal distributions."}, "isolated ileum": {"system": "isolated ileum", "assay": "Muscle tone of isolated ileum (force transducer)", "assay_type": "cell-based, rat", "conditions": "for Change in muscle tone of isolated ileum after 40 min compared to KRB buffer: P<0.05 by ANOVA", "protocol": "as §1\nMuscle tone and contractile amplitude (calculated as the average cyclic minimum and maximum, respectively) were determined for 5 min periods, pre- (˜5 min before) and post-treatment (40 min after start). The tone and amplitude at −5 and +40 minutes for each condition was compared to that condition's baseline by one-way ANOVA."}}}
{"smiles": "CCCCC/C=C\\C/C=C\\CCCCCCCC(=O)O", "note": "[LA, linoleic acid]", "values": [{"measurement": "GLP-1 concentration in the bathing medium", "setting": "[1]; segments of duodenum, jejunum ileum and colon", "value": "increased"}, {"measurement": "GLP-1 concentration in the bathing medium", "setting": "[1]; segments of esophagus or stomach", "value": "not"}, {"measurement": "GLP-1 release, LA alone (mean ± SEM)", "setting": "[2]; paired control for 0.15 Hz 0.7 V 300 ms", "value": "17.9 ± 4.1", "unit": "pM"}, {"measurement": "GLP-1 release, LA alone (mean ± SEM)", "setting": "[2]; paired control for 0.15 Hz 2 V 5 ms", "value": "12.1 ± 4.0", "unit": "pM"}, {"measurement": "GLP-1 release, LA alone (mean ± SEM)", "setting": "[2]; paired control for 0.15 Hz 5 V 5 ms", "value": "17.6 ± 5.9", "unit": "pM"}, {"measurement": "GLP-1 release, LA alone (mean ± SEM)", "setting": "[2]; paired control for 0.15 Hz 10 V 5 ms", "value": "19.5 ± 9.0", "unit": "pM"}, {"measurement": "GLP-1 release, LA alone (mean ± SEM)", "setting": "[2]; paired control for 0.15 Hz 20 V 5 ms", "value": "12.5 ± 1.7", "unit": "pM"}, {"measurement": "GLP-1 release, LA alone (mean ± SEM)", "setting": "[2]; paired control for 0.4 Hz 14 V 5 ms", "value": "11.0 ± 2.8", "unit": "pM"}, {"measurement": "GLP-1 release, LA alone (mean ± SEM)", "setting": "[2]; paired control for 0.4 Hz 14 V 300 ms", "value": "12.7 ± 2.4", "unit": "pM"}, {"measurement": "GLP-1 release, LA alone (mean ± SEM)", "setting": "[2]; paired control for 4 Hz 14 V 5 ms", "value": "8.6 ± 1.8", "unit": "pM"}, {"measurement": "GLP-1 release, LA alone (mean ± SEM)", "setting": "[2]; paired control for 20 Hz 14 V 5 ms", "value": "14.4 ± 5.9", "unit": "pM"}, {"measurement": "GLP-1 release, LA alone (mean ± SEM)", "setting": "[2]; paired control for 40 Hz 14 V 5 ms", "value": "10.2 ± 2.1", "unit": "pM"}, {"measurement": "GLP-1 release, LA alone (mean ± SEM)", "setting": "[2]; paired control for 80 Hz 14 V 5 ms", "value": "20.6 ± 3.4", "unit": "pM"}, {"measurement": "GLP-1 release, LA + E-stim (mean ± SEM)", "setting": "[2]; LA 3 mg/mL 45 min plus electrical stimulation 0.15 Hz 0.7 V 300 ms, p 0.257 vs LA alone", "value": "22.1 ± 4.2", "unit": "pM"}, {"measurement": "GLP-1 release, LA + E-stim (mean ± SEM)", "setting": "[2]; LA 3 mg/mL 45 min plus electrical stimulation 0.15 Hz 2 V 5 ms, p 0.948 vs LA alone", "value": "11.1 ± 1.0", "unit": "pM"}, {"measurement": "GLP-1 release, LA + E-stim (mean ± SEM)", "setting": "[2]; LA 3 mg/mL 45 min plus electrical stimulation 0.15 Hz 5 V 5 ms, p 0.344 vs LA alone", "value": "22.6 ± 9.4", "unit": "pM"}, {"measurement": "GLP-1 release, LA + E-stim (mean ± SEM)", "setting": "[2]; LA 3 mg/mL 45 min plus electrical stimulation 0.15 Hz 10 V 5 ms, p 0.311 vs LA alone", "value": "29.4 ± 6.6", "unit": "pM"}, {"measurement": "GLP-1 release, LA + E-stim (mean ± SEM)", "setting": "[2]; LA 3 mg/mL 45 min plus electrical stimulation 0.15 Hz 20 V 5 ms, p 0.212 vs LA alone", "value": "16.5 ± 3.7", "unit": "pM"}, {"measurement": "GLP-1 release, LA + E-stim (mean ± SEM)", "setting": "[2]; LA 3 mg/mL 45 min plus electrical stimulation 0.4 Hz 14 V 5 ms, p 0.761 vs LA alone", "value": "10.4 ± 1.8", "unit": "pM"}, {"measurement": "GLP-1 release, LA + E-stim (mean ± SEM)", "setting": "[2]; LA 3 mg/mL 45 min plus electrical stimulation 0.4 Hz 14 V 300 ms, p 0.056 vs LA alone", "value": "31.3 ± 5.9", "unit": "pM"}, {"measurement": "GLP-1 release, LA + E-stim (mean ± SEM)", "setting": "[2]; LA 3 mg/mL 45 min plus electrical stimulation 4 Hz 14 V 5 ms, p 0.838 vs LA alone", "value": "9.1 ± 1.4", "unit": "pM"}, {"measurement": "GLP-1 release, LA + E-stim (mean ± SEM)", "setting": "[2]; LA 3 mg/mL 45 min plus electrical stimulation 20 Hz 14 V 5 ms, p 0.152 vs LA alone", "value": "32.6 ± 12.2", "unit": "pM"}, {"measurement": "GLP-1 release, LA + E-stim (mean ± SEM)", "setting": "[2]; LA 3 mg/mL 45 min plus electrical stimulation 40 Hz 14 V 5 ms, p 0.016 vs LA alone", "value": "38.1 ± 11.1", "unit": "pM"}, {"measurement": "GLP-1 release, LA + E-stim (mean ± SEM)", "setting": "[2]; LA 3 mg/mL 45 min plus electrical stimulation 80 Hz 14 V 5 ms, p 0.391, includes one result designated 100 pM (upper level of detection, actual 178 pM)", "value": "33.7 ± 12.4", "unit": "pM"}, {"measurement": "LA-evoked increase of GLP-1 in the presence of TTX", "setting": "[2]; TTX 0.5 μM concurrently with linoleic acid for 45 min (FIG. 7)", "value": "persisted"}, {"measurement": "GLP-1 released after 45 mins incubation in LA", "setting": "[2]; compiled data from 51 distal ileum segments, LA 3 mg/mL, mean ± SEM, KRB buffer alone 3.6 pM", "value": "21.9 ± 2.6", "unit": "pM"}, {"measurement": "Enhancement of GLP-1 released during incubation with nutrient stimulus by E-stim compared to LA alone", "setting": "[2]; four electrical stimulation conditions with total charge 1400, 1680, 2800 and 5600 μC", "value": "150-300%"}, {"measurement": "Increase of GLP-1 release by electrical stimulation together with LA over that evoked by LA alone", "setting": "[2]; in the presence of TTX 0.5 μM, E-stim 14V 0.4 Hz 300 ms, 45 min", "value": "239±64", "unit": "%"}, {"measurement": "LA concentration giving maximal GLP-1 response", "setting": "[2]; tissue incubated in 1, 3 and 10 mg/mL LA, data not shown", "value": 3, "unit": "mg/mL"}, {"measurement": "GLP-1 concentration over time", "setting": "[2]; two segments of ileum incubated in 3 mg/ml LA (FIG. 4)", "value": "increased over time"}, {"measurement": "Change in muscle tone of isolated ileum after 40 min compared to KRB buffer", "setting": "isolated ileum; LA combined with E-stim 14V 40 Hz 5 ms", "value": "significant reduction"}, {"measurement": "Change in muscle tone of isolated ileum after 40 min compared to KRB buffer", "setting": "isolated ileum; LA combined with E-stim 14 V 80 Hz 5 ms", "value": "significant reduction"}, {"measurement": "Muscle tone of isolated ileum compared to KRB buffer alone", "setting": "isolated ileum; LA with E-stim 14V 0.4 Hz 300 ms", "value": "not different"}, {"measurement": "Muscle tone of isolated ileum compared to KRB buffer alone", "setting": "isolated ileum; LA with E-stim 14V 20 Hz 5 ms", "value": "not different"}, {"measurement": "Change in muscle tone of isolated ileum after 40 min", "setting": "isolated ileum; incubation in LA alone (FIG. 9)", "value": "tended to decrease"}]}
{"smiles": "NC1=N[C@H](O)[C@H]2[C@H]3O[C@]4(O)O[C@@H]([C@@H](O)[C@@]2(N1)[C@@H]4O)[C@]3(O)CO", "note": "[TTX, tetrodotoxin]", "values": [{"measurement": "Effect of TTX alone on GLP-1 release", "setting": "[2]", "value": "no effect"}, {"measurement": "Effect of tetrodotoxin on the two-fold increase in GLP-1 evoked by direct electrical stimulation of ileal tissue", "setting": "[2]", "value": "did not prevent"}]}
